Reference: patent US20210155644A1, “CYCLOPENTENYL PURINE DERIVATIVE OR SALT THEREOF” (Fujifilm Corporation, priority 2018, published 2021)
pEC50: −log10 of the molar value. Read-outs that look alike come from different tables or passages of the source.

System: adenovirus type 6 (ADV6)
Experiment: Evaluation of anti-adenovirus activity: CRL-11516 cells infected with ADV6, anti-hexon staining, count of stained cells
Type: cell-based
Experimental: A system in which CRL-11516 cells (available from ATCC) were infected with adenovirus type 6 (hereinafter, referred to as ADV6) was constructed, and a test for evaluating the anti-adenovirus activity of the compound according to the embodiment of the present invention and the compound of Comparative Example was carried out using the system. The test for evaluating the anti-adenovirus activity was carried out according to the method described below.
CRL-11516 cells were added to a 96-well plate at a cell density of 1×10^4 cells/well and cultured at 37° C. for 24 hours. After the culture was completed, the cell culture liquid was removed, and a serial dilution (100 μL) of the compound according to the embodiment of the present invention or the compound of Comparative Example was added. ADV6 (corresponding to 50TCID50) was added thereto, followed by culturing at 37° C. for 48 hours.
After the culture was completed, the infected cells were stained using Adeno-X Rapid Titer Kit (manufactured by Takara Bio Inc.). 100% methanol was added thereto and the cells were fixed at −20° C. for 10 minutes. The plate was washed three times with phosphate buffered saline (hereinafter, referred to as PBS) and then Mouse Anti-Hexon Antibody was added thereto, followed by incubation at 37° C. for 1 hour. After the incubation was completed, the plate was washed three times with PBS, and Rat Anti-Mouse Antibody was added thereto, followed by incubation at 37° C. for 1 hour. After the incubation was completed, a mixed staining solution of Stable Peroxidase Buffer:DAB Substrate=10:1 was added thereto, followed by incubation at room temperature for 10 minutes for staining of the cells.
The number of dark brown-stained cells was counted under a microscope, and the concentration of the test drug that reduces the dark brown-stained cells by 50% was defined as EC50. EC50 values were calculated for the triplicate test results, and a mean value and a standard deviation thereof were determined.

[1] = CRL-11516 cells infected with ADV6, 48 hours culture, concentration reducing dark brown-stained cells by 50%, read-out: Anti-AdV activity EC50
[2] = Human mastadenovirus C, 48 h, CRL-11516 cells infected with ADV6, 48 hours culture, concentration reducing dark brown-stained cells by 50%, read-out: Anti-AdV activity EC50
[3] = Human mastadenovirus C, CRL-11516 cells infected with ADV6, 48 hours culture, concentration reducing dark brown-stained cells by 50%, read-out: Anti-AdV activity EC50

Compound	pEC50 [1]	pEC50 [2]	also measured
COc1nc(N)nc2c1ncn2[C@H]1C=C[C@@H](COP(=O)(N[C@@H](CC(C)C)C(=O)OC(C)C)Oc2ccccc2)C1 (single isomer, unassigned) [Example 7-1-2]	6.00 to 7.00		
COc1nc(N)nc2c1ncn2[C@H]1C=C[C@@H](COP(=O)(OCCSC(=O)C(C)(C)C)Oc2ccccc2)C1 (stereo partly drawn) [Example 4-7-1, S-(2-(((((1 S,4R)-4-(2-amino-6-methoxy-9H-purin-9-yl)cyclopent-2-en-1-yl)methoxy) (phenoxy)phosphoryl)oxy)ethyl) 2,2-dimethylpropanethioate]			pEC50 (Human mastadenovirus C, 48 h, read-out: Anti-AdV activity EC50, CRL-11516 cells infected with ADV6, 48 hours culture, concentration reducing dark brown-stained cells by 50%): 7.00 to 8.00
COC(=O)[C@H](C)NP(=O)(OC[C@@H]1C=C[C@H](n2cnc3c(OC)nc(N)nc32)C1)Oc1ccccc1 (stereo partly drawn) [Example 4-2-1, methyl ((((1 S,4R)-4-(2-amino-6-methoxy-9H-purin-9-yl)cyclopent-2-en-1-yl)methoxy)(phenoxy)phosphoryl)-L-alaninate]		7.00 to 8.00	
COc1nc(N)nc2c1ncn2[C@H]1C=C[C@@H](COP(=O)(N[C@@H](C)C(=O)OC2CC2)Oc2ccccc2)C1 (stereo partly drawn) [Example 1-2-58, cyclopropyl ((((1S,4R)-4-(2-amino-6-methoxy-9H-purin-9-yl)cyclopent-2-en-1-yl)methoxy)(phenoxy)phosphoryl)-L-alaninate]		7.00 to 8.00	
CC(C)OC(=O)[C@H](C)NP(=O)(OCCSC(=O)C(C)(C)C)OC[C@@H]1C=C[C@H](n2cnc3c(Cl)nc(N)nc32)C1 (stereo partly drawn) [Example 1-2-73, isopropyl ((((1S,4R)-4-(2-amino-6-chloro-9H-purin-9-yl)cyclopent-2-en-1-yl)methoxy)(2-(pivaloylthio)ethoxy)phosphoryl)-L-alaninate]			pEC50 [3]: > 8.00
COC(=O)[C@H](C)NP(=O)(OCCSC(=O)C(C)(C)C)OC[C@@H]1C=C[C@H](n2cnc3c(OC)nc(N)nc32)C1 (stereo partly drawn) [Example 4-6-1, ((((1S,4R)-4-(2-amino-6-methoxy-9H-purin-9-yl)cyclopent-2-en-1-yl)methoxy)(2-(pivaloylthio)ethoxy)phosphoryl)-L-alaninate]	> 8.00		
COC(=O)[C@H](C)NP(=O)(OCCSC(=O)C(C)(C)CO)OC[C@@H]1C=C[C@H](n2cnc3c(Cl)nc(N)nc32)C1 (stereo partly drawn) [Example 5-1, methyl ((((1 S,4R)-4-(2-amino-6-chloro-9H-purin-9-yl)cyclopent-2-en-1-yl)methoxy)(2-((3-hydroxy-2,2-dimethylpropanoyl)thio)ethoxy)phosphoryl)-L-alaninate]			pEC50 [3]: 6.00 to 7.00
COC(=O)[C@H](C)NP(=O)(OC[C@@H]1C=C[C@H](n2cnc3c(OC)nc(N)nc32)C1)Oc1ccc(Cl)cc1 (stereo partly drawn) [Example 1-2-2, methyl ((((1S,4R)-4-(2-amino-6-methoxy-9H-purin-9-yl)cyclopent-2-en-1-yl)methoxy)(4-chlorophenoxy)phosphoryl)-L-alaninate]		> 8.00	
COc1nc(N)nc2c1ncn2[C@H]1C=C[C@@H](COP(=O)(N[C@@H](C)C(=O)OC(C)C)Oc2ccccc2)C1 (stereo partly drawn) [Example 2-2-12, isopropyl ((((1S,4R)-4-(2-amino-6-methoxy-9H-purin-9-yl)cyclopent-2-en-1-yl)methoxy)(phenoxy)phosphoryl)-L-alaninate]	6.00 to 7.00		
CNc1nc(N)nc2c1ncn2[C@H]1C=C[C@@H](COP(=O)(N[C@@H](C)C(=O)OC)Oc2ccc(Br)cc2)C1 (stereo partly drawn) [Example 1-2-46, Methyl ((((1S,4R)-4-(2-amino-6-(methylamino)-9H-purin-9-yl)cyclopent-2-en-1-yl)methoxy)(4-bromophenoxy)phosphoryl)-L-alaninate]		> 8.00	
CC(C)OC(=O)[C@H](C)N[P@@](=O)(OC[C@@H]1C=C[C@H](n2cnc3c(N4CCC4)nc(N)nc32)C1)Oc1ccccc1 [Example 2-2-37, isopropyl ((R)-(((1S,4R)-4-(2-amino-6-(azetidin-1-yl)-9H-purin-9-yl)cyclopent-2-en-1-yl)methoxy)(phenoxy)phosphoryl)-L-alaninate]		7.00 to 8.00	
COCCOc1cccc(OP(=O)(N[C@@H](C)C(=O)OC(C)C)OC[C@@H]2C=C[C@H](n3cnc4c(OC)nc(N)nc43)C2)c1 (stereo partly drawn) [Example 6-2-23, isopropyl ((((1S,4R)-4-(2-amino-6-methoxy-9H-purin-9-yl)cyclopent-2-en-1-yl)methoxy)(3-(2-methoxyethoxy)phenoxy)phosphoryl)-L-alaninate]		> 8.00	
CC(C)OC(=O)[C@H](C)NP(=O)(OC[C@@H]1C=C[C@H](n2cnc3c(NC4CC4)nc(N)nc32)C1)Oc1ccccc1 (stereo partly drawn) [Example 2-2-2, Isopropyl ((((1S,4R)-4-(2-amino-6-(cyclopropyl-amino)-9H-purin-9-yl)cyclopent-2-en-1-yl)methoxy) (phenoxy)phosphoryl)-L-alaninate]		6.00 to 7.00	
COc1nc(N)nc2c1ncn2[C@H]1C=C[C@@H](COP(=O)(N[C@@H](C)C(=O)OC(C)C)Oc2cccc3ccccc23)C1 (stereo partly drawn) [Example 6-2-25]	> 8.00		
CC(C)OC(=O)[C@H](C)N[P@](=O)(OC[C@@H]1C=C[C@H](n2cnc3c(OC(C)C)nc(N)nc32)C1)Oc1ccccc1 [Example 2-2-20, Isopropyl ((S)-(((1S,4R)-4-(2-amino-6-isopropoxy-9H-purin-9-yl)cyclopent-2-en-1-yl)methoxy) (phenoxy)phosphoryl)-L-alaninate]		6.00 to 7.00	
COc1nc(N)nc2c1ncn2[C@H]1C=C[C@@H](COP(=O)(N[C@@H](C)C(=O)OC(C)C)Oc2ccccc2)C1 (stereo partly drawn) [Example 4-4-2, Isopropyl ((((1 S,4R)-4-(2-amino-6-methoxy-9H-purin-9-yl)cyclopent-2-en-1-yl)methoxy)(phenoxy)phosphoryl)-L-alaninate]	6.00 to 7.00		
COc1nc(N)nc2c1ncn2[C@H]1C=C[C@@H](COP(=O)(OCCSC(=O)C(C)(C)C)Oc2ccccc2)C1 (stereo partly drawn) [Example 2-1, S-(2-(((((1S,4R)-4-(2-amino-6-methoxy-9H-purin-9-yl)cyclopent-2-en-1-yl)methoxy)(phenoxy)phosphoryl)oxy)ethyl) 2,2-dimethylpropanethioate]			pEC50 (read-out: Anti-AdV activity EC50, CRL-11516 cells infected with ADV6, 48 hours culture, concentration reducing dark brown-stained cells by 50%): > 8.00
COC(=O)[C@H](C)NP(=O)(OCCSC(=O)C(C)(C)C)OC[C@@H]1C=C[C@H](n2cnc3c(OC)nc(N)nc32)C1 (stereo partly drawn) [Example 1-2-12, methyl ((((1S,4R)-4-(2-amino-6-methoxy-9H-purin-9-yl)cyclopent-2-en-1-yl)methoxy)(2-(pivaloylthio)ethoxy)phosphoryl)-L-alaninate]			pEC50 [3]: > 8.00
CC(C)OC(=O)[C@H](C)NP(=O)(OC[C@@H]1C=C[C@H](n2cnc3c(Cl)nc(N)nc32)C1)Oc1ccccc1 (stereo partly drawn) [Example 2-2-1, isopropyl ((((1S,4R)-4-(2-amino-6-chloro-9H-purin-9-yl)cyclopent-2-en-1-yl)methoxy)(phenoxy)phosphoryl)-L-alaninate]	6.00 to 7.00		
COC(=O)[C@H](C)NP(=O)(OCCSC(=O)C(C)(C)C)OC[C@@H]1C=C[C@H](n2cnc3c(OC)nc(N)nc32)C1 (stereo partly drawn) [Example 4-6-2, ((((1S,4R)-4-(2-amino-6-methoxy-9H-purin-9-yl)cyclopent-2-en-1-yl)methoxy)(2-(pivaloylthio)ethoxy)phosphoryl)-L-alaninate]	> 8.00		
CC(C)OC(=O)[C@H](C)N[P@@](=O)(OC[C@@H]1C=C[C@H](n2cnc3c(OC(C)C)nc(N)nc32)C1)Oc1ccccc1 [Example 2-2-19, isopropyl ((R)-(((1S,4R)-4-(2-amino-6-isopropoxy-9H-purin-9-yl)cyclopent-2-en-1-yl)methoxy)(phenoxy)phosphoryl)-L-alaninate]		7.00 to 8.00	
